Test results taken from patent US8969335B2, “Benzonitrile derivatives as kinase inhibitors” (MERCK PATENT GmbH, priority 2011, dated 2015).

Columns and labels:
[1] = target: TANK binding kinase (TBK1) (Homo sapiens (Human), UniProt Q9UHD2); assay: TBK1 enzyme assay (384-well flashplate kinase assay); assay type: biochemical; settings: 0.6 nM TBK1, 10 μM ATP, 30° C., 120 min
[2] = target: IKKε (Homo sapiens (Human), UniProt Q14164); assay: IKKε kinase assay (384-well flashplate assay); assay type: biochemical; settings: 1 nM IKKε, 10 μM ATP, 30° C., 2 hours; read-out: IKKε enzyme assay IC50
IKKε, sequence (Q14164 whole entry): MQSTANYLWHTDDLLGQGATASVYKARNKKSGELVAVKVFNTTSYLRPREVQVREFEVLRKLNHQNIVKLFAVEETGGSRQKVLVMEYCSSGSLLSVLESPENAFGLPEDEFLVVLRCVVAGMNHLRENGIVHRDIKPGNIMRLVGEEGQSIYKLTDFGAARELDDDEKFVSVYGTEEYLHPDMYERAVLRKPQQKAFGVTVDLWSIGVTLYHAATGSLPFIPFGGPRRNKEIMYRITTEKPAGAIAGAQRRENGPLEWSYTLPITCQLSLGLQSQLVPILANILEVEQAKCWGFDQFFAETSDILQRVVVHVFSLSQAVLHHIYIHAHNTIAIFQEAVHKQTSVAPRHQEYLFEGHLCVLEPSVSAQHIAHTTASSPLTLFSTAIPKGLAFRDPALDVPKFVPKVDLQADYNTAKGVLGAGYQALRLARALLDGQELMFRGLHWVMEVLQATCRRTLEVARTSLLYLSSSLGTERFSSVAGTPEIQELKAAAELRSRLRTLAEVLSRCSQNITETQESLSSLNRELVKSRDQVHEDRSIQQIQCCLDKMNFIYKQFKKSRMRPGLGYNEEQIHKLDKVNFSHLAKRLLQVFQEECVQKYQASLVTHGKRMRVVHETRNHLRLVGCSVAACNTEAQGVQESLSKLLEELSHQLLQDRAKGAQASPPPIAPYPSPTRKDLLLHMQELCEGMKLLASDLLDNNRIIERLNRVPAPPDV
Description: Test for the Inhibition of IKKε
IKKε—Kinase Assay (IKKepsilon)
The kinase assay is performed as 384-well flashplate assay (for example for Topcount measurement).
1 nM IKKε, 800 nM biotinylated IκBα(19-42) peptide (Biotin-C6-C6-[…]) and 10 μM ATP (spiked with 0.3 μCi of ^33P-ATP/well) are incubated at 30° C. for 2 hours in a total volume of 50 μl (10 mM MOPS, 10 mM Mg acetate, 0.1 mM EGTA, 1 mM dithiothreitol, 0.02% of Brij35, 0.1% of BSA, 0.1% of BioStab, pH 7.5) with or without test compound. The reaction is stopped using 25 μl of 200 mM EDTA. After 30 min at room temperature, the liquid is removed, and each well is washed three times with 100 μl of 0.9% sodium chloride solution. Non-specific reaction is determined in the presence of 3 μM MSC2119074 (BX-795). The radioactivity is measured using a Topcount (PerkinElmer). The results (for example IC50 values) are calculated using program tools provided by the IT Department (for example AssayExplorer, Symyx).

[3] = system: TBK1 + IKKε (phospho-IRF3 @ Ser 386, MDA-MB-468 cells); assay: TBK1 + IKKε cell assay: dose response inhibition of phospho-IRF3 @ Ser 386 in MDA-MB-468 cells; assay type: cell-based; settings: Homo sapiens, poly(I:C) stimulation, nuclear phospho-IRF3, read-out: TBK1 + IKKε cell assay IC50

TANK binding kinase (TBK1), sequence (Q9UHD2 whole entry): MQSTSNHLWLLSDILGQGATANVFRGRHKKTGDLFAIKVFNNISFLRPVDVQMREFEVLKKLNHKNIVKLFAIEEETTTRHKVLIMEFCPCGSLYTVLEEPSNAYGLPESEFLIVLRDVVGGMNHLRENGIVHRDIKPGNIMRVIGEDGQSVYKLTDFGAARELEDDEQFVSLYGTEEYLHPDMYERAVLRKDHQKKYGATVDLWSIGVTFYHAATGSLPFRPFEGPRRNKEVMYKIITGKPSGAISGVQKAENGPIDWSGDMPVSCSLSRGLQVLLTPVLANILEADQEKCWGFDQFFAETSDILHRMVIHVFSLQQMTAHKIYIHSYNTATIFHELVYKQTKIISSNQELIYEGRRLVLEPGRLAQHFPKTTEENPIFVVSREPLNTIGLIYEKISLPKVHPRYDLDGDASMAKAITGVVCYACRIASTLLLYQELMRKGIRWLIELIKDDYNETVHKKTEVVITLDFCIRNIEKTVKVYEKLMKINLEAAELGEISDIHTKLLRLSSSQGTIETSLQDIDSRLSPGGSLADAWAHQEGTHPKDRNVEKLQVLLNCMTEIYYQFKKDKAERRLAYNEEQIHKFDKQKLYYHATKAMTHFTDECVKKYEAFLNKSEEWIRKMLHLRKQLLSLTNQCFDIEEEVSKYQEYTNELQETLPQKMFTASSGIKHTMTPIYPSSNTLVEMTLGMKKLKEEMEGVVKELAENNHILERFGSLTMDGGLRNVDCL

Structure (SMILES)	IC50 [1]	IC50 [2]	IC50 [3]
N#Cc1cc(-c2ccnc(Nc3ccc(-c4cccnc4)cn3)c2)ccc1OC1CCOCC1 [Compound A3, 5-[2-([3,3′]Bipyridinyl-6-ylamino)pyridin-4-yl]-2-(tetrahydropyran-4-yloxy)benzonitrile]	260 nM	370 nM	3300 nM
N#Cc1cc(-c2ccnc(Nc3ccc(CO)cn3)c2)ccc1OCC1CC1 [Compound A106, 2-cyclopropylmethoxy-5-[2-(5-hydroxymethylpyridin-2-ylamino)pyridin-4-yl]benzonitrile]	41 nM	46 nM	4100 nM
N#Cc1cc(-c2ccnc(Nc3cc(CN)ccn3)c2)ccc1OC1CCOCC1 [Compound A77, 5-[2-(4-aminomethyl-pyridin-2-ylamino)pyridin-4-yl]-2-(tetrahydropyran-4-yloxy)benzonitrile]	30 nM	12 nM	1400 nM
N#Cc1cc(-c2ccnc(Nc3ccn(C4CCNCC4)n3)c2)ccc1OCC1CC1 [Compound A107, 2-cyclopropylmethoxy-5-[2-(1-piperidin-4-yl-1H-pyrazol-3-ylamino)pyridin-4-yl]benzonitrile]	50 nM	30 nM	11000 nM
N#Cc1cc(-c2ccnc(Nc3cc(C4CCNCC4)ccn3)c2)ccc1OC1CCOCC1 [Compound A74, 5-[2-(1′,2′,3′,4′,5′,6′-hexahydro-[4,4′]bipyridinyl-2-ylamino)pyridin-4-yl]-2-(tetrahydropyran-4-yloxy)benzonitrile]	2 nM	1 nM	1600 nM
N#Cc1cc(-c2ccnc(Nc3ccc(-c4cn[nH]c4)cn3)c2)ccc1OC1CCOCC1 [Compound A9, 5-{2-[5-(1H-Pyrazol-4-yl)pyridin-2-ylamino]pyridin-4-yl}-2-(tetrahydropyran-4-yloxy)benzonitrile]	120 nM	100 nM	3000 nM
CN(C)Cc1ccnc(Nc2cc(-c3ccc(OC4CCOCC4)c(C#N)c3)ccn2)c1 [Compound A81, 5-[2-(4-dimethyl-aminomethylpyridin-2-ylamino)pyridin-4-yl]-2-(tetrahydropyran-4-yloxy)benzonitrile]	14 nM	10 nM	350 nM
N#Cc1cc(-c2ccnc(Nc3ccc(N4CCOCC4)cn3)c2)ccc1OCC1CCC1 [Compound A113, 2-cyclobutylmethoxy-5-[2-(5-morpholin-4-ylpyridin-2-ylamino)pyridin-4-yl]benzonitrile]	54 nM	120 nM	2900 nM
N#Cc1cc(-c2ccnc(Nc3cccc(C4CCNCC4)n3)c2)ccc1OC1CCOCC1 [Compound A91, 5-[2-(1′,2′,3′,4′,5′,6′-hexahydro-[2,4′]bipyridinyl-6-ylamino)pyridin-4-yl]-2-(tetrahydropyran-4-yloxy)benzonitrile]	32 nM	8 nM	2300 nM
N#Cc1cc(-c2ccnc(Nc3ncc(C4CCNCC4)cn3)c2)ccc1OC1CCOCC1 [Compound A66, 5-[2-(5-piperidin-4-ylpyrimidin-2-ylamino)pyridin-4-yl]-2-(tetrahydropyran-4-yloxy)benzonitrile]	100 nM	82 nM	4900 nM
Cc1cc(Nc2cc(-c3ccc(OC4CCOCC4)c(C#N)c3)ccn2)no1 [Compound A4, 5-[2-(5-Methylisoxazol-3-ylamino)pyridin-4-yl]-2-(tetrahydropyran-4-yloxy)benzonitrile]	34 nM	38 nM	6600 nM
N#Cc1cc(-c2ccnc(Nc3ccc(N4CCOCC4)cn3)c2)ccc1OCC1CC1 [Compound A108, 2-cyclopropylmethoxy-5-[2-(5-morpholin-4-ylpyridin-2-ylamino)pyridin-4-yl]benzonitrile]	23 nM	45 nM	1200 nM
N#Cc1ccc(Nc2cc(-c3ccc(OC4CCOCC4)c(C#N)c3)ccn2)nc1 [Compound A11, 6-{4-[3-Cyano-4-(tetrahydropyran-4-yloxy)phenyl]pyridin-2-ylamino}nicotinonitrile]	250 nM	240 nM	5200 nM

Second part, the compound after the results:

IC50 [1]	IC50 [2]	IC50 [3]	Structure (SMILES)
3 nM	5 nM	440 nM	N#Cc1cc(-c2ccnc(Nc3cnn([C@H]4CC[C@H](O)CC4)c3)n2)ccc1OC1CCOCC1 [Compound A101, 5-{2-[1-(4-hydroxycyclohexyl)-1H-pyrazol-4-ylamino]pyrimidin-4-yl}-2-(tetrahydropyran-4-yloxy)benzonitrile]
7 nM	8 nM	890 nM	COCCn1cc(Nc2nccc(-c3ccc(OCC4CCC4)c(C#N)c3)n2)cn1 [Compound A103, 2-cyclobutylmethoxy-5-{2-[1-(2-methoxyethyl)-1H-pyrazol-4-ylamino]pyrimidin-4-yl}benzonitrile]
27 nM	21 nM	6100 nM	COc1nc(Nc2nccc(-c3ccc(OC4CCOCC4)c(C#N)c3)n2)ccc1C1=CCNCC1 [Compound A76, 5-[2-(2-methoxy-1′,2′,3′,6′-tetrahydro[3,4′]bipyridinyl-6-ylamino)pyrimidin-4-yl]-2-(tetrahydropyran-4-yloxy)benzonitrile]
8 nM	10 nM	270 nM	N#Cc1cc(-c2ccnc(Nc3cnn([C@H]4CC[C@@H](O)CC4)c3)n2)ccc1OC1CCOCC1 [Compound A73, 5-{2-[1-(4-hydroxycyclohexyl)-1H-pyrazol-4-ylamino]pyrimidin-4-yl}-2-(tetrahydropyran-4-yloxy)benzonitrile]
6 nM	18 nM	670 nM	COCCn1cc(Nc2nccc(-c3ccc(OC4CCOCC4)c(C#N)c3)n2)cn1 [Compound A35, 5-{2-[1-(2-Methoxyethyl)-1H-pyrazol-4-ylamino]pyrimidin-4-yl}-2-(tetrahydropyran-4-yloxy)benzonitrile]
83 nM	20 nM	960 nM	CN1CCC(n2cc(Nc3cc(-c4ccc(OC5CCOCC5)c(C#N)c4)ccn3)cn2)CC1 [Compound A2, 5-{2-[1-(1-Methylpiperidin-4-yl)-1H-pyrazol-4-yl-amino]pyridin-4-yl}-2-(tetrahydropyran-4-yloxy)benzonitrile]
60 nM	88 nM	5300 nM	N#Cc1cc(-c2ccnc(Nc3cnn(CCN4CCCC4)c3)n2)ccc1OC1CCOCC1 [Compound A83, 5-{2-[1-(2-pyrrolidin-1-ylethyl)-1H-pyrazol-4-ylamino]pyrimidin-4-yl}-2-(tetrahydropyran-4-yloxy)benzonitrile]
97 nM	110 nM	2900 nM	Cn1ccc(Nc2cc(-c3ccc(OC4CCOCC4)c(C#N)c3)ccn2)n1 [Compound A5, 5-[2-(1-Methyl-1H-pyrazol-3-ylamino)pyridin-4-yl]-2-(tetrahydropyran-4-yloxy)benzonitrile]
3 nM	4 nM	500 nM	N#Cc1cc(-c2ccnc(Nc3cnn(CCO)c3)n2)ccc1OC1CCOCC1 [Compound A75, 5-{2-[1-(2-hydroxyethyl)-1H-pyrazol-4-ylamino]pyrimidin-4-yl}-2-(tetrahydropyran-4-yloxy)benzonitrile]
55 nM	51 nM	4800 nM	N#Cc1cc(-c2ccnc(Nc3cnn(CC(F)F)c3)c2)ccc1OC1CCOCC1 [Compound A20, 5-{2-[1-(2,2-Difluoroethyl)-1H-pyrazol-4-ylamino]pyridin-4-yl}-2-(tetrahydropyran-4-yloxy)benzonitrile]
120 nM	88 nM	6700 nM	N#Cc1cc(-c2ccnc(Nc3cnn(CCC4CCN(C(=O)CO)CC4)c3)c2)ccc1OC1CCOCC1 [Compound A29, 5-[2-(1-{2-[1-(2-Hydroxyacetyl)piperidin-4-yl]ethyl}-1H-pyrazol-4-ylamino)pyridin-4-yl]-2-(tetrahydropyran-4-yloxy)benzonitrile]
130 nM	58 nM	5000 nM	Cn1ccc(Nc2nccc(-c3ccc(OC4CCOCC4)c(C#N)c3)n2)n1 [Compound A33, 5-[2-(1-Methyl-1H-pyrazol-3-ylamino)pyrimidin-4-yl]-2-(tetrahydropyran-4-yloxy)benzonitrile]
8 nM	15 nM	350 nM	N#Cc1cc(-c2ccnc(Nc3ccc(N4CCOCC4)cn3)c2)ccc1OC1CCOCC1 [Compound A7, 5-[2-(5-Morpholin-4-ylpyridin-2-ylamino)pyridin-4-yl]-2-(tetrahydropyran-4-yloxy)benzonitrile]
70 nM	37 nM	5300 nM	N#Cc1cc(-c2ccnc(Nc3cnn(CCC4CCNCC4)c3)c2)ccc1OC1CCOCC1 [Compound A21, 5-{2-[1-(2-Piperidin-4-ylethyl)-1H-pyrazol-4-ylamino]pyridin-4-yl}-2-(tetrahydropyran-4-yloxy)benzonitrile]
